Test results reported in paper PMC2781006 (Virology Journal, 2009).
pIC50: −log10 of the molar value. Where two headings read alike, the source gives them in different places.

Experiments:
Nipah virus [1] = experiment: microbe, parasite or virus in culture; assay type: cell-based; details: read-out: NiV IC50
Hendra virus = experiment: microbe, parasite or virus in culture; assay type: cell-based; details: read-out: HeV IC50
in vitro [2] = details: African green monkey
[3] = test system: pseudotyped Hendra (pHeV); experiment: microbe, parasite or virus in culture; assay type: cell-based, Hendra virus; details: read-out: pHeV IC50
IL-8 = assay type: cell-based, African Green Monkey
VSV (pVSV) = experiment: microbe, parasite or virus in culture; assay type: cell-based, vesicular stomatitis virus; details: read-out: pVSV IC50
in vitro [4] = details: human
influenza A (H1N1) virus = details: cited from earlier work
Nipah virus [5] = experiment: microbe, parasite or virus in culture; assay type: cell-based; details: Henipavirus nipahense
[6] = test system: human parainfluenza virus type 3 (HPIV3); experiment: microbe, parasite or virus in culture; assay type: cell-based; details: read-out: HPIV3 IC50
pseudotyped Nipah (pNiV) = experiment: microbe, parasite or virus in culture; assay type: cell-based, Nipah virus; details: read-out: pNiV IC50
[7] = test system: Influenza A/swine/Rachaburi/2000 (H1N1); experiment: microbe, parasite or virus in culture; assay type: cell-based, Influenza A virus
TNF-α = assay type: cell-based, African Green Monkey
Nipah virus [8] = details: hamster, in vivo; cited from earlier work
Henipavirus = details: cited from earlier work
[9] = Vesicular stomatitis virus, HEK-293T, 48 h
[10] = 1 h, read-out: NiV IC50, co-infection (Co)
[11] = 1 h, read-out: NiV IC50, post-infection (Post)
[12] = 1 h, read-out: NiV IC50, pre-infection (Pre)
[13] = read-out: NiV IC50, cell pre-incubation (Cells)
[14] = Human respirovirus 3, HEK-293T, 24 h
[15] = Henipavirus nipahense, HEK-293T, 48 h

In the case of `NC(=O)c1ncn([C@@H]2O[C@H](CO)[C@@H](O)[C@H]2O)n1` [Ribavirin, ribavirin], the pIC50 (Nipah virus [1]; Henipavirus nipahense, Vero) was 5.41, the pIC50 (Hendra virus; Henipavirus hendraense, Vero) was 5.65 and the CC50 (in vitro [2]) was 150000 nM.
With `CN(C)c1ccc(C(=C2C=CC(=[N+](C)C)C=C2)c2ccc(N(C)C)cc2)cc1` [Gentian Violet, gentian violet] the pIC50 ([3]; Hendra virus, HEK-293T, 48 h) was 9.52, the “IL-8 expression, fold change” value (IL-8) was “two fold” and the pIC50 (VSV (pVSV); [9]) was 6.57. It also gave a pIC50 (Nipah virus [1]; Henipavirus nipahense, Vero) of 6.28, a CC50 (in vitro [4]) of 2830 nM and a pIC50 (Hendra virus; Henipavirus hendraense, Vero) of 5.57. For the same molecule, the “residual viable count of influenza virus, 30 min” value (influenza A (H1N1) virus) was “below three logs”, the “residual viable count of influenza virus, 60 min” value (influenza A (H1N1) virus) was “below five logs” and the pIC50 (Nipah virus [5]; [10]) was 5.30. It also gave a pIC50 (Nipah virus [5]; [11]) of 5.40, a pIC50 (Nipah virus [5]; [12]) of 5.13 and a pIC50 (Nipah virus [5]; [13]) of 6.23. The pIC50 [6, 14] was 6.07, the pIC50 (pseudotyped Nipah (pNiV); [15]) was 7.21 and the “Influenza IC50” value [7] was “DNC^a”. For the same molecule, the “inhibition of influenza (H1N1) virus, in words” value (“inhibition of influenza” for short) [7] was “did not observe clear inhibition” and the CC50 (in vitro [2]) was 5860 nM.
For brilliant green, the CC50 (Vero cells) was 4670 nM, the pIC50 [3] was 7.47 and the “IL-8 expression, fold change” value (IL-8) was 20 fold. The pIC50 (VSV (pVSV)) was 7.82, the pIC50 (Nipah virus [1]) was 6.66 and the “TNF-α expression, fold change” value (TNF-α) was 15 fold. It also gave a pIC50 (Hendra virus) of 6.11, a pIC50 [6] of 6.61 and a pIC50 (pseudotyped Nipah (pNiV)) of 7.38. For the same molecule, the “Influenza IC50” value [7] was “DNC^a”, the “inhibition of influenza” value [7] was “did not observe antiviral efficacy” and the CC50 (293T cells) was 861 nM.
For poly(I)-poly(C12U), the prevention of mortality (Nipah virus [8]) is listed as “five of six animals”.
With `CN1C(=O)[C@]23CC4=CC=C[C@H](O)[C@H]4N2C(=O)[C@@]1(CO)SS3` [Gliotoxin, gliotoxin] the pIC50 ([3]; Hendra virus, HEK-293T, 48 h) was 6.44, the “IL-8 expression, fold change” value (IL-8) was “two fold” and the pIC50 (VSV (pVSV); [9]) was 6.63. The pIC50 (Nipah virus [1]; Henipavirus nipahense, Vero) was 6.83, the CC50 (in vitro [4]) was 1610 nM and the “TNF-α expression, fold change” value (TNF-α) was “suppressed”. It also gave a pIC50 (Hendra virus; Henipavirus hendraense, Vero) of 6.24, a pIC50 (Nipah virus [5]; [10]) of 6.33 and a pIC50 (Nipah virus [5]; [11]) of 6.21. For the same molecule, the pIC50 (Nipah virus [5]; [12]) was 5.93, the pIC50 (Nipah virus [5]; [13]) was 6.31 and the pIC50 [6, 14] was 6.28. The pIC50 (pseudotyped Nipah (pNiV); [15]) was 7.00, the “inhibition of influenza” value [7] was “dose-dependant inhibition” and the pIC50 ([7]; Influenza A virus, H1N1, Vero, in Sus scrofa, 24 h, read-out: Influenza IC50) was 4.86. It also gave a CC50 (in vitro [2]) of 4900 nM.
For `CCN(CC)CCCC(C)Nc1ccnc2cc(Cl)ccc12` (centres unmarked) [chloroquine], the “anti Henipavirus effects in vivo” value (Henipavirus) is listed as “no anti Henipavirus effects”.
